Measured values taken from PubChem BioAssay (NCI).
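Test compounds were applied to cells in 96-well plates for 48 hours at 5 doses. TGI marks complete inhibition of growth.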

Key:
Test in all cases: NCI-60 cell line screen, 48 h
786-0 renal = system: 786-0 renal
A498 renal = system: A498 renal
A549 NSCLC = system: A549 NSCLC
ACHN renal = system: ACHN renal
BT-549 breast = system: BT-549 breast
CAKI-1 renal = system: CAKI-1 renal
COLO 205 colon = system: COLO 205 colon
DU-145 prostate = system: DU-145 prostate
EKVX NSCLC = system: EKVX NSCLC
HCC-2998 colon = system: HCC-2998 colon
HCT-116 colon = system: HCT-116 colon
HCT-15 colon = system: HCT-15 colon
HL-60(TB) leukemia = system: HL-60(TB) leukemia
HOP-62 NSCLC = system: HOP-62 NSCLC
HOP-92 NSCLC = system: HOP-92 NSCLC
HS 578T breast = system: HS 578T breast
HT29 colon = system: HT29 colon
IGROV1 ovarian = system: IGROV1 ovarian
K-562 leukemia = system: K-562 leukemia
KM12 colon = system: KM12 colon
LOX IMVI melanoma = system: LOX IMVI melanoma
M14 melanoma = system: M14 melanoma
MALME-3M melanoma = system: MALME-3M melanoma
MCF7 breast = system: MCF7 breast
MDA-MB-231 breast = system: MDA-MB-231 breast
MDA-MB-435 = system: MDA-MB-435
MOLT-4 leukemia = system: MOLT-4 leukemia
NCI-H226 lung = system: NCI-H226 lung
NCI-H23 lung = system: NCI-H23 lung
NCI-H460 lung = system: NCI-H460 lung
NCI-H522 lung = system: NCI-H522 lung
NCI/ADR-RES ovarian = system: NCI/ADR-RES ovarian
OVCAR-3 ovarian = system: OVCAR-3 ovarian
OVCAR-4 ovarian = system: OVCAR-4 ovarian
OVCAR-5 ovarian = system: OVCAR-5 ovarian
OVCAR-8 ovarian = system: OVCAR-8 ovarian
PC-3 prostate = system: PC-3 prostate
RPMI-8226 leukemia = system: RPMI-8226 leukemia
RXF 393 renal = system: RXF 393 renal
SF-268 CNS = system: SF-268 CNS
SF-295 CNS = system: SF-295 CNS
SF-539 CNS = system: SF-539 CNS
SK-MEL-2 melanoma = system: SK-MEL-2 melanoma
SK-MEL-28 melanoma = system: SK-MEL-28 melanoma
SK-MEL-5 melanoma = system: SK-MEL-5 melanoma
SN12C renal = system: SN12C renal
SNB-19 CNS = system: SNB-19 CNS
SNB-75 CNS = system: SNB-75 CNS
SR leukemia = system: SR leukemia
SW-620 colon = system: SW-620 colon
T-47D breast = system: T-47D breast
TK-10 renal = system: TK-10 renal
U251 CNS = system: U251 CNS
UACC-257 melanoma = system: UACC-257 melanoma
UACC-62 melanoma = system: UACC-62 melanoma
UO-31 renal = system: UO-31 renal

Measured: TGI

c1ccc2c(c1)ccc1ncccc12
> 100 µM: all assays above
